This assay addresses recombinant GST-tagged MDM2 / p53 peptide (Homo sapiens, UniProt Q00987). Briefly: HTRF assay of inhibition of the p53-MDM2 interaction. It is filed as binding. As to conditions: GST-MDM2 and biotinylated p53 peptide, 37° C. 1 h. The protocol:
The ability of the compounds to inhibit the interaction between p53 and MDM2 proteins was measured by an HTRF (homogeneous time-resolved fluorescence) assay in which recombinant GST-tagged MDM2 binds to a peptide that resembles the MDM2-interacting region of p53 (Lane et al.). Binding of GST-MDM2 protein and p53-peptide (biotinylated on its N-terminal end) is registered by the FRET (fluorescence resonance energy transfer) between Europium (Eu)-labeled anti-GST antibody and streptavidin-conjugated Allophycocyanin (APC).
Test is performed in black flat-bottom 384-well plates (Costar) in a total volume of […] containing:90 nM biotinylate peptide, 160 ng/ml GST-MDM2, 20 nM streptavidin-APC (PerkinElmerWallac), 2 nM Eu-labeled anti-GST-antibody (PerkinElmerWallac), 0.2% bovine serum albumin (BSA), 1 mM dithiothreitol (DTT) and 20 mM […] (TBS) buffer as follows: Add 10 uL of GST-MDM2 (640 ng/ml working solution) in reaction buffer to each well. Add 10 uL diluted compounds (1:5 dilution in reaction buffer) to each well, mix by shaking. Add 20 uL biotinylated p53 peptide (180 nM working solution) in reaction buffer to each well and mix on shaker. Incubate at 37° C. for 1 h. Add 20 uL streptavidin-APC and Eu-anti-GST antibody mixture (6 nM Eu-anti-GST and 60 nM streptavidin-APC working solution) in TBS buffer with 0.2% BSA, shake at room temperature for 30 minutes and read using a TRF-capable plate reader at 665 and 615 nm (Victor 5, Perkin ElmerWallac). If not specified, the reagents were purchased from Sigma Chemical Co.

Sequence of recombinant GST-tagged MDM2 / p53 peptide (Q00987 whole entry): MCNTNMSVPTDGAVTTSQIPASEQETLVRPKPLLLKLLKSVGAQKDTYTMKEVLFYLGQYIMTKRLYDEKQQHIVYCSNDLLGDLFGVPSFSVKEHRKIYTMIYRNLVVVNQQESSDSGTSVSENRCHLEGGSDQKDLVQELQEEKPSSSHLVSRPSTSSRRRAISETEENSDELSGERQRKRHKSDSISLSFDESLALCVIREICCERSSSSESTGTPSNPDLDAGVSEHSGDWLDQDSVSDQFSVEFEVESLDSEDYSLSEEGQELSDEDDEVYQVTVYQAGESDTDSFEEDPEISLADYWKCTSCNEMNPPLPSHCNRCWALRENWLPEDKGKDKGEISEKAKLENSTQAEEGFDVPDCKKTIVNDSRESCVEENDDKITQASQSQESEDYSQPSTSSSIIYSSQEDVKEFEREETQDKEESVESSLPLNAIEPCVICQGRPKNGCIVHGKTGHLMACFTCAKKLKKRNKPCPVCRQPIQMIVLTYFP

As for `CCOc1cc(C(F)(F)F)ccc1C1=NC(c2ccc(Cl)cc2)C(c2ccc(Cl)cc2)N1C(=O)N1CCN(S(=O)(=O)C(C)C)CC1` (centres unmarked) [Example 6, [4,5-Bis-(4-chloro-phenyl)-2-(2-ethoxy-4-trifluoromethyl-phenyl)-4,5-dihydro-imidazol-1-yl]-[4-(propane-2-sulfonyl)-piperazin-1-yl]-methanone], the IC50 was 100 nM. On to `CCOc1cc(C(F)(F)F)ccc1C1=NC(c2ccc(Cl)cc2)C(c2ccc(Cl)cc2)N1C(=O)N1CCC(C(=O)OC)CC1` (centres unmarked) [Example 16, 1-[4,5-Bis-(4-chloro-phenyl)-2-(2-ethoxy-4-trifluoromethyl-phenyl)-4,5-dihydro-imidazole-1-carbonyl]-piperidine-4-carboxylic acid methyl ester], for which the IC50 was determined as 1740 nM. Turning to `CCOc1cc(C(F)(F)F)ccc1C1=NC(c2ccc(Cl)cc2)C(c2ccc(Cl)cc2)N1C(=O)N1CCC(n2c(=O)[nH]c3ccccc32)CC1` (centres unmarked) [Example 26, 1-{1-[4,5-Bis-(4-chloro-phenyl)-2-(2-ethoxy-4-trifluoromethyl-phenyl)-4,5-dihydro-imidazole-1-carbonyl]-piperidin-4-yl}-1,3-dihydro-benzoimidazol-2-one], the IC50 came out at 800 nM. In the case of `CCOc1cc(C(F)(F)F)ccc1C1=NC(c2ccc(Cl)cc2)C(c2ccc(Cl)cc2)N1C(=O)N(C)c1ccccn1` (centres unmarked) [Example 36, 4,5-Bis-(4-chloro-phenyl)-2-(2-ethoxy-4-trifluoromethyl-phenyl)-4,5-dihydro-imidazole-1-carboxylic acid methyl-pyridin-2-yl-amide] it was 4260 nM; in that of `CCOc1cc(C(F)(F)F)ccc1C1=NC(c2ccc(Cl)cc2)C(c2ccc(Cl)cc2)N1C(=O)N1CCC(NCC(=O)N(C)CCC#N)CC1` (centres unmarked) [Example 176, 2-{1-[4,5-Bis-(4-chloro-phenyl)-2-(2-ethoxy-4-trifluoromethyl-phenyl)-4,5-dihydro-imidazole-1-carbonyl]-piperidin-4-ylamino}-N-(2-cyano-ethyl)-N-methyl-acetamide], 21 nM.

The values above are taken from patent US7425638B2, “Cis-imidazolines” (Hoffmann-La Roche Inc., priority 2003, dated 2008).
